{"source": "patent US4228150A", "about": "“Method of inhibiting dextransucrase and oral compositions for use therein” (Iowa State University Research Foundation, Inc., priority 1979, dated 1980)", "test_system": "dextransucrase", "assay": "Inhibition of dextransucrase synthesis of dextran from 14C-sucrose (radioactive polysaccharide on paper, slope versus control)", "type": "biochemical, bacteria", "settings": "compared to 6,1',6'-trifluorosucrose", "description": "Dextransucrase was obtained from the culture supernatant of bacteria. Various amounts (6 to 30 mg/ml) of the fluorosucrose mixture prepared as in Example I were added to the enzyme (3 units/ml)* and allowed to incubate 10 minutes. At the end of this time, the enzyme was assayed by adding 1/2 volume of 0.3 M ^14 C-(U)-sucrose to the fluorosucrose-enzyme solution; equal aliquots were withdrawn with time and spotted onto 1.5×1.5 cm squares of Whatman 3 MM paper, which were immediately dropped into 20 ml anhydrous methanol. Three 200 ml volumes of methanol were added in 15 min. intervals. The papers were then removed, dried, and the radioactivity determined in a liquid scintillation spectrometer. The amount of radioactivity (polysaccharide formed) was plotted against the reaction time with sucrose (time of aliquot removed). The slopes of the resulting lines were determined and the percent inhibition calculated from the ratio of the slopes of the inhibited reactions to the slope of a control in which no inhibitor was added.\n*Units are in terms of International Enzyme Units, that is, the amount of enzyme that will incorporate one micromole of monomer into polysaccharide per minute under conditions of optimum temperature and pH."}
{"smiles": "O[C@@H]1[C@@H](O)[C@@H](O[C@]2(CCl)O[C@H](CCl)[C@@H](O)[C@@H]2O)O[C@H](CCl)[C@H]1O", "note": "[6,1',6'-trichlorosucrose]", "values": [{"measurement": "effectiveness as an inhibitor for dextran", "result": "relatively ineffective"}]}
